Converted amounts (≈) assume the structure as drawn. Read-outs that look alike come from different tables or passages of the source.
Columns and labels:
human CMV = assay: Plaque reduction assay against human CMV (ED50); assay type: cell-based
[1] = test system: human cytomegalovirus (strain AD 169); assay: Inhibition of human cytomegalovirus in MRC5 cells by plaque reduction assay (reduction of CPE, MIC50; Table 1); assay type: cell-based; conditions: for inhibition at 0.032 µg/mL: 0.032 μg/ml; for inhibition at 0.1 µg/mL: 0.1 μg/ml
Excerpt: (§1) In each case, drug treatment began 0 hr. postinfection.

[2] = test system: human diploid embryonic lung cells (MRC5); assay: Drug cytotoxicity (gross morphology) in MRC5 cells (Table 1)
Excerpt: Also evaluated under the same conditions were prior art drugs Ara-A and ganciclovir (DHPG). In each case, drug treatment began 0 hr. postinfection.

CMV [3] = assay: MIC50 against CMV in MRC5 cells; assay type: cell-based; conditions: Human betaherpesvirus 5
HCMV [4] = assay: Virus yield-reduction assay, combination with DHPG on HCMV replication in MRC5 cells (Table 2); assay type: cell-based, human CMV; conditions: DHPG 0
Excerpt: Effect of Combination Treatment^a With (±)-2'-CDG and
DHPG on HCMV Replication in MRC5 Cells
(§2) (Virus Yield-Reduction Assay)

MRC5 cells = assay: Drug cytotoxicity (gross morphology) in MRC5 cell monolayer cultures (Tables 4 and 5); assay type: cell-based, human
Protocol: (§3) The effectiveness of racemic 2'-CdG and of D-2'-CdG on CMV yields in MRC5 cell monolayer cultures was determined by a plaque assay with the results set forth in Tables 4 and 5:
(§4) ^a Drug treatment began immediately following the virus adsorption
(§5) ^a Drug treatment began immediately following the 1 1/2 hour

[5] = test system: human cytomegalovirus (strain AD 169); assay: CMV yield in MRC5 cells (Table 1); assay type: cell-based
Excerpt: as §1

HCMV [6] = assay: Virus yield-reduction assay, combination with papaverine on HCMV replication in MRC5 cells (Table 3); assay type: cell-based, human CMV
Excerpt: The following results were obtained in testing mixtures of racemic 2'-CdG and papaverine under the same conditions:
Effect of Combination Treatment^a With Papaverine and
(±)-2'-CDG and on HCMV Replication in MRC5 Cells
as §2, §4

CMV [7] = assay: CMV yields in MRC5 cell monolayer cultures by plaque assay (Tables 4 and 5); assay type: cell-based; conditions: virus control 5.5
Protocol: as §3, §4, §5

CMV [8] = assay: Reduction of CPE in CMV-infected MRC5 cell monolayer cultures (Tables 4 and 5); assay type: cell-based; conditions: Human betaherpesvirus 5, MRC5, read-out: Reduction (%) of CPE by CDG at Time of Harvest
Protocol: as §3, §4, §5

cytomegalovirus = conditions: cited from earlier work; for treatment of cytomegalovirus retinitis: Rosecan et al. 1986 / reported
[9] = 0.1 μg/ml, virus control 5.5 (DHPG 5.3)
[10] = 0.32 μg/ml, virus control 5.5 (DHPG 5.3)
[11] = 1.0 μg/ml, virus control 5.5 (DHPG 5.3)
[12] = 3.2 μg/ml, virus control 5.5 (DHPG 5.3)
[13] = 10 μg/ml, virus control 5.5 (DHPG 5.3)
[14] = Human betaherpesvirus 5, MRC5, treatment 0 hr postinfection, read-out: Reduction (%) of CPE at Time of Harvest
[15] = Human betaherpesvirus 5, 0.32 μg/ml, MRC5, treatment 0 hr postinfection, read-out: Reduction (%) of CPE at Time of Harvest
[16] = Human betaherpesvirus 5, 1.0 μg/ml, MRC5, treatment 0 hr postinfection, read-out: Reduction (%) of CPE at Time of Harvest
[17] = Human betaherpesvirus 5, 3.2 μg/ml, MRC5, treatment 0 hr postinfection, read-out: Reduction (%) of CPE at Time of Harvest
[18] = Human betaherpesvirus 5, 10 μg/ml, MRC5, treatment 0 hr postinfection, read-out: Reduction (%) of CPE at Time of Harvest
[19] = Human betaherpesvirus 5, MRC5, 0 h, read-out: Reduction (%) of CPE at Time of Harvest

## CC(C)C(=O)OC[C@H]1O[C@@H](n2cnc3c(=O)[nH]c(N)nc32)C[C@@H]1OC(=O)C(C)C (racemic) [racemic 2'-deoxyguanosine-3',5'-0-diisobutyrate, 2'-deoxyguanosine-3',5'-0-diisobutyrate]
Human CMV
  ED50: 3.9 µg/mL (≈ 9.57 µM)

## Nc1nc(N)c2ncn([C@@H]3C[C@H](CO)[C@@H](O)[C@H]3O)c2n1 (relative stereo) [DAPR]
[1]; Human betaherpesvirus 5, MRC5, tested under the same conditions as Table 1
  IC50: 8.7 µg/mL (≈ 31 µM)
[1]; tested under the same conditions as Table 1
  therapeutic index: 40

## Nc1nc2c(ncn2[C@@H]2C[C@H](CO)[C@@H](O)C2)c(=O)[nH]1 (relative stereo) [±2'-CdG]
[2]; 0.032 μg/ml
  Drug Cytotoxicity (gross morphology): 0
[2]; 0.1 μg/ml
  Drug Cytotoxicity (gross morphology): 0
[2]; 0.32 μg/ml
  Drug Cytotoxicity (gross morphology): 0
[2]; 1.0 μg/ml
  Drug Cytotoxicity (gross morphology): 0
[2]; 3.2 μg/ml
  Drug Cytotoxicity (gross morphology): v. sl. toxic
[2]; 10 μg/ml
  Drug Cytotoxicity (gross morphology): sl. toxic
[2]; 32 μg/ml
  Drug Cytotoxicity (gross morphology): toxic
CMV [3]
  IC50: 0.069 µg/mL (≈ 0.26 µM)
HCMV [4]; (±)-2'-CDG 0.1 (mM as printed)
  Reduction in CMV Yield: 0.1 Log10 PFU/ML
HCMV [4]; (±)-2'-CDG 0.32 (mM as printed)
  Reduction in CMV Yield: 0.5 Log10 PFU/ML
HCMV [4]; (±)-2'-CDG 1.0 (mM as printed)
  Reduction in CMV Yield: 0.6 Log10 PFU/ML
HCMV [4]; (±)-2'-CDG 3.2 (mM as printed)
  Reduction in CMV Yield: 1.0 Log10 PFU/ML
MRC5 cells; Table 4, 0.032 μg/mL
  Drug Cytotoxicity (gross morphology): 0
MRC5 cells; Table 4, 0.1 μg/mL
  Drug Cytotoxicity (gross morphology): 0
MRC5 cells; Table 4, 0.32 μg/mL
  Drug Cytotoxicity (gross morphology): 0
MRC5 cells; Table 4, 1.0 μg/mL
  Drug Cytotoxicity (gross morphology): 0
MRC5 cells; Table 4, 3.2 μg/mL
  Drug Cytotoxicity (gross morphology): v. sl.
MRC5 cells; Table 4, 10 μg/mL
  Drug Cytotoxicity (gross morphology): sl. toxicity
MRC5 cells; Table 4, 32 μg/mL
  Drug Cytotoxicity (gross morphology): toxic
[5]; 0.032 μg/ml, virus control 5.5
  CMV Yield: 5.4 log10 CCID50 /ml
[5]; [9]
  CMV Yield: 5.0 log10 CCID50 /ml
[5]; [10]
  CMV Yield: 4.5 log10 CCID50 /ml
[5]; [11]
  CMV Yield: 3.6 log10 CCID50 /ml
[5]; [12]
  CMV Yield: 1.0 log10 CCID50 /ml
[5]; [13]
  CMV Yield: 0 log10 CCID50 /ml
HCMV [6]; (±)-2'-CDG 0.32 (mM as printed), papaverine (DHPG) 0
  Reduction in CMV Yield: 0.7 Log10 PFU/ML
HCMV [6]; (±)-2'-CDG 1.0 (mM as printed), papaverine (DHPG) 0
  Reduction in CMV Yield: 1.0 Log10 PFU/ML
HCMV [6]; (±)-2'-CDG 3.2 (mM as printed), papaverine (DHPG) 0
  Reduction in CMV Yield: 1.7 Log10 PFU/ML
HCMV [6]; (±)-2'-CDG 10.0 (mM as printed), papaverine (DHPG) 0
  Reduction in CMV Yield: 2.7 Log10 PFU/ML
CMV [7]; Table 4, 0.032 μg/mL
  CMV Yield: 5.4 log10 CCID50 /mL
CMV [7]; Table 4, 0.1 μg/mL
  CMV Yield: 5.0 log10 CCID50 /mL
CMV [7]; Table 4, 0.32 μg/mL
  CMV Yield: 4.5 log10 CCID50 /mL
CMV [7]; Table 4, 1.0 μg/mL
  CMV Yield: 3.6 log10 CCID50 /mL
CMV [7]; Table 4, 3.2 μg/mL
  CMV Yield: 1.0 log10 CCID50 /mL
CMV [7]; Table 4, 10 μg/mL
  CMV Yield: 0 log10 CCID50 /mL
[1]; [14]
  inhibition at 0.032 µg/mL: 0%
  inhibition at 0.1 µg/mL: 0%
[1]; [15]
  inhibition at 0.32 µg/mL: 20%
[1]; [16]
  inhibition at 1 µg/mL: 95%
[1]; [17]
  inhibition at 3.2 µg/mL: 100%
[1]; [18]
  inhibition at 10 µg/mL: 100%
CMV [8]; Table 4, 0.032 μg/mL
  inhibition at 0.032 µg/mL: 0%
CMV [8]; Table 4, 0.1 μg/mL
  inhibition at 0.1 µg/mL: 0%
CMV [8]; Table 4, 0.32 μg/mL
  inhibition at 0.32 µg/mL: 20%
CMV [8]; Table 4, 1.0 μg/mL
  inhibition at 1 µg/mL: 95%
CMV [8]; Table 4, 3.2 μg/mL
  inhibition at 3.2 µg/mL: 100%
CMV [8]; Table 4, 10 μg/mL
  inhibition at 10 µg/mL: 100%

## Nc1nc(N)c2ncn([C@@H]3C[C@H](CO)[C@@H](O)C3)c2n1 (relative stereo) [±C-2,6'-DAPdR]
[2]; 0.032 μg/ml
  Drug Cytotoxicity (gross morphology): 0
[2]; 0.1 μg/ml
  Drug Cytotoxicity (gross morphology): 0
[2]; 0.32 μg/ml
  Drug Cytotoxicity (gross morphology): 0
[2]; 1.0 μg/ml
  Drug Cytotoxicity (gross morphology): 0
[2]; 3.2 μg/ml
  Drug Cytotoxicity (gross morphology): v. sl. toxic
[2]; 10 μg/ml
  Drug Cytotoxicity (gross morphology): sl. toxic
[2]; 32 μg/ml
  Drug Cytotoxicity (gross morphology): toxic
[5]; 0.032 μg/ml, virus control 5.5
  CMV Yield: 5.3 log10 CCID50 /ml
[5]; [9]
  CMV Yield: 5.0 log10 CCID50 /ml
[5]; [10]
  CMV Yield: 4.0 log10 CCID50 /ml
[5]; [11]
  CMV Yield: 3.4 log10 CCID50 /ml
[5]; [12]
  CMV Yield: 0 log10 CCID50 /ml
[5]; [13]
  CMV Yield: 0 log10 CCID50 /ml
[1]; [14]
  inhibition at 0.032 µg/mL: 0%
  inhibition at 0.1 µg/mL: 0%
[1]; [15]
  inhibition at 0.32 µg/mL: 25%
[1]; [16]
  inhibition at 1 µg/mL: 95%
[1]; [17]
  inhibition at 3.2 µg/mL: 100%
[1]; [18]
  inhibition at 10 µg/mL: 100%

## Nc1ncnc2c1ncn2[C@@H]1O[C@H](CO)[C@@H](O)[C@@H]1O [Ara-A, reference compound]
[2]; 0.32 μg/ml
  Drug Cytotoxicity (gross morphology): 0
[2]; 1.0 μg/ml
  Drug Cytotoxicity (gross morphology): 0
[2]; 3.2 μg/ml
  Drug Cytotoxicity (gross morphology): 0
[2]; 10 μg/ml
  Drug Cytotoxicity (gross morphology): 0
cytomegalovirus
  treatment of cytomegalovirus retinitis: unsuccessful
[5]; [10]
  CMV Yield: 5.2 log10 CCID50 /ml
[5]; [11]
  CMV Yield: 4.9 log10 CCID50 /ml
[5]; [12]
  CMV Yield: 4.7 log10 CCID50 /ml
[5]; [13]
  CMV Yield: 3.4 log10 CCID50 /ml
[5]; 32 μg/ml, virus control 5.5 (DHPG 5.3)
  CMV Yield: 0.6 log10 CCID50 /ml
[5]; 100 μg/ml, virus control 5.5 (DHPG 5.3)
  CMV Yield: 0 log10 CCID50 /ml
[1]; [19]
  inhibition at 0.32 µg/mL: 0%
  inhibition at 1 µg/mL: 0%
  inhibition at 3.2 µg/mL: 5%
  inhibition at 10 µg/mL: 90%
  inhibition at 32 µg/mL: > 95%
  inhibition at 100 µg/mL: 100%

## CCCCC(=O)OC[C@H]1O[C@@H](n2cnc3c(=O)[nH]c(N)nc32)C[C@@H]1O [D-2'-deoxyguanosine-5'-0-valerate]
Human CMV
  ED50: 0.09 µg/mL (≈ 0.256 µM)

## COc1ccc(Cc2nccc3cc(OC)c(OC)cc23)cc1OC [Papaverine, reference compound]
HCMV [6]; (±)-2'-CDG 0, papaverine (DHPG) 1.0 μM
  Reduction in CMV Yield: 0 Log10 PFU/ML
HCMV [6]; (±)-2'-CDG 0, papaverine (DHPG) 3.2 μM
  Reduction in CMV Yield: 0.2 Log10 PFU/ML
HCMV [6]; (±)-2'-CDG 0, papaverine (DHPG) 10.0 μM
  Reduction in CMV Yield: 0.6 Log10 PFU/ML
HCMV [6]; (±)-2'-CDG 0, papaverine (DHPG) 32.0 μM
  Reduction in CMV Yield: 1.4 Log10 PFU/ML

## Nc1nc2c(ncn2COCCO)c(=O)[nH]1 [acyclovir]
cytomegalovirus; CMV retinitis, reported
  activity against CMV retinitis: ineffective
cytomegalovirus
  treatment of cytomegalovirus retinitis: unsuccessful
cytomegalovirus; established systemic CMV infections, reported
  activity against established systemic CMV infections: ineffective

## alpha-interferon
cytomegalovirus
  treatment of cytomegalovirus retinitis: unsuccessful

— patent US6080746A, “Methods and compositions for the prophylaxis and treatment of cytomegalovirus infections” (priority 1991, dated 2000)
